Reference: publication PMC8391421, “Identification of Novel Positive Allosteric Modulators of Neurotrophin Receptors for the Treatment of Cognitive Dysfunction” (Cells, 2021)

Legend:
[1] = tested on: Shaffer collaterals-CA1 pathway, hippocampal slices; assay: Facilitation of long-term potentiation in rat hippocampal slices; conditions: 20 µM added 15 min before Ø burst stimulation; n = 7 slices from 5 rats
Experimental: Male Sprague Dawley rats (4–5 weeks old) from Charles River Laboratories, Sulzfeld, Germany, were used in these experiments. Rats were deeply anesthetized using isoflurane and decapitated soon after the disappearance of the corneal reflexes. The brains were removed and placed in ice-cold standard artificial CSF (aCSF) solution (124 mM NaCl, 30 mM NaHCO3, 10 mM glucose, 1.25 mM NaH2PO4, 3.5 mM KCl, 1 mM MgCl2, 2 mM CaCl2). Hippocampal horizontal sections (400 µm thick) were prepared using a Leica VT1200S vibratome (Leica Microsystems, Kista, Sweden). Immediately after slicing, sections were transferred into an interface incubation chamber filled with standard aCSF. The chamber was held at 34 °C during the slicing period and was subsequently allowed to cool down to room temperature. […] The facilitation of long-term potentiation (LTP) was monitored in the Shaffer collaterals (SC)-CA1 pathway in the hippocampus. […] Data were normalized with respect to the mean fEPSP slope recorded during the last 10 min of the baseline period.
It has been well-described that the transient, short-term plasticity of synaptic strength induced by a weak stimulation in hippocampal slices can turn into long-term potentiation (LTP) through the exogenous application of BDNF [71, 72, 73]. […] In the control slices, the recorded potentiation decreased to the baseline level after 60 min. […]

[2] = target: T1, fibroblast growth factor receptor (FGFR1) (Homo sapiens, UniProt P11362); assay: FGFR1 PathHunter cell-based assay (U2OS-FGFR1)
T1 construct: host or cells: U2OS (human osteosarcoma)
T1 sequence (P11362 22-822): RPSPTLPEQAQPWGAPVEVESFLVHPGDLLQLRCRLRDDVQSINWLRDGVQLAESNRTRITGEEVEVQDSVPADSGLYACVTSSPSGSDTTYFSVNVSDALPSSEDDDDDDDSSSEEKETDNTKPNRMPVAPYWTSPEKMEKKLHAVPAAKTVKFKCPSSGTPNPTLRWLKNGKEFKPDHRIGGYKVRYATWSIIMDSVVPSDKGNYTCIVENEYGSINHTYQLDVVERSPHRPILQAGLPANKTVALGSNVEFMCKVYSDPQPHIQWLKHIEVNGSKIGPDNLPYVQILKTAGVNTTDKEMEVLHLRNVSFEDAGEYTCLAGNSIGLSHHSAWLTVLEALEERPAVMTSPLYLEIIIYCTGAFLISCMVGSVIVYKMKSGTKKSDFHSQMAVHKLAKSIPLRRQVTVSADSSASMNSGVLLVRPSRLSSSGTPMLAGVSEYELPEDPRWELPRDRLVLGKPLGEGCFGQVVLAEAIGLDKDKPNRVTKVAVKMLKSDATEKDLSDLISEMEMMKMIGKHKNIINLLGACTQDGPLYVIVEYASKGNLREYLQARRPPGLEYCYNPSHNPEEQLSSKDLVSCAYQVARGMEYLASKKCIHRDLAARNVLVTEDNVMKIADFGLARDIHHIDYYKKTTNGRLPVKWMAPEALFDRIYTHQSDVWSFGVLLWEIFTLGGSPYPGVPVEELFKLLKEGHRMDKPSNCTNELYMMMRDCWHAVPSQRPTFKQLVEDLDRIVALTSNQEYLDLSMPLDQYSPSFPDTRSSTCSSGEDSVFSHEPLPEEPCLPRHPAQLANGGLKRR
From the text: The human osteosarcoma cell lines U2OS-TrkA/p75, U2OS-TrkB/p75, U2OS-TrkC/p75, U2OS-ratTrkA/p75, U2OS-FGFR1 (fibroblast growth factor receptor 1) as well as the human embryonic kidney cell line HEK293-IGF1R (insulin-like growth factor 1 receptor) from DiscoverX, Birmingham, United Kingdom, were used in the in vitro experiments. Eagle’s minimum essential medium (EMEM) ATCC #30-2003 from LGC Standards AB, Borås, Sweden; Leibovitz’s L15 medium, RPMI1640, fetal bovine serum, horse serum, penicillin/streptomycin, and Hoechst dye purchased from Invitrogen, Gothenburg, Sweden, were also used. Black poly-D-lysine coated 384-well plates (Viewplate) were purchased from PerkinElmer, Upplands Väsby, Sweden, and white 384-well assay plates(3570) were purchased from Corning, Amsterdam, Netherlands. […] Recombinant intracellular domain (ICD) of TrkA (08-186) and single site biotinylated activated (08-486-20N) or non-activated TrkA (08-486-23N) were obtained from Carna Biosciences, Odense, Denmark. […]
U2OS cells were maintained subconfluent in EMEM supplemented with 10% FBS and penicillin/streptomycin/hygromycin and G418. […] The functional (complemented) β-gal will hydrolyze a substrate to generate a luminescence signal. The generated luminescence was read using an EnVision plate reader from PerkinElmer, Upplands Väsby, Sweden, or an ID5 plate reader from Molecular Devices, Berkshire, RG41 5TS UK. […]

Cc1cc(-n2c(=O)[nH]c(=O)n(C)c2=O)ccc1Oc1ccc(S(=O)(=O)C(F)(F)F)cc1 [ACD855, Toltrazuril-sulfone]
long-lasting potentiation of evoked synaptic responses (fEPSP slope), fold increase [1]: 1.21 ± 0.03 fold
EC50 [2]: 800 nM
FGFR1 Effect (efficacy) [2]: 44%
